The source of these data is ChEMBL document CHEMBL3108719, “Synthesis and in Vitro Evaluation of a Peptidomimetic Inhibitor Targeting the Src Homology 2 (SH2) Domain of STAT6” (ACS Med Chem Lett, 2014).

Structures are written as SMILES. Calls of active or inactive are those of the source. No cut-off for these calls is given here.

Assay type in all cases: cell-based
The target in data set [1] is T1, Signal transducer and activator of transcription 6 (Homo sapiens) (UniProt P42226).
T1 sequence (whole entry): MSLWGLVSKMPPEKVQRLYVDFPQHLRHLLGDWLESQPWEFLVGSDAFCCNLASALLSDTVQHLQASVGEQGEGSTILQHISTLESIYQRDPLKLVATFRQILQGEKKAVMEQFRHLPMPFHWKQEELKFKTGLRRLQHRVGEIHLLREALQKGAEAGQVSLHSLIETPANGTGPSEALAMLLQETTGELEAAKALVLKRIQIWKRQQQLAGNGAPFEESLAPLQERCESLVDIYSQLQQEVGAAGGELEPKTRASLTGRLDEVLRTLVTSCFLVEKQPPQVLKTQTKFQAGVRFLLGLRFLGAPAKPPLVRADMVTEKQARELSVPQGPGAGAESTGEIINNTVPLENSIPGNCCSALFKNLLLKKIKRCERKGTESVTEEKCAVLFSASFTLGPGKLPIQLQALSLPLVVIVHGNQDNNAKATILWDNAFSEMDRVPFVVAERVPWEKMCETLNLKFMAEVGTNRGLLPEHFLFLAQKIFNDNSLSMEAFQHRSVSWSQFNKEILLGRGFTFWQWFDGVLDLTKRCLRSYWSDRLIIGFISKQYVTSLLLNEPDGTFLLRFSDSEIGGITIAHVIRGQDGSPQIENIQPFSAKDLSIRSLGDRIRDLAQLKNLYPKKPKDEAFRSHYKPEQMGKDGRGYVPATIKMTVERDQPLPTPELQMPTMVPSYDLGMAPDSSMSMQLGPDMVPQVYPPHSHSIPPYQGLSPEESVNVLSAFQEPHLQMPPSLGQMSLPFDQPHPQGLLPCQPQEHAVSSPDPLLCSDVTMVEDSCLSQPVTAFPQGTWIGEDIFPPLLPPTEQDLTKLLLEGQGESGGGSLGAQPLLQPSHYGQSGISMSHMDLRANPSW
As to the kind of experiment: Inhibition of IL4-stimulated SH2 domain of STAT6 phosphorylation at Tyr641 in human BEAS2B cells at 1 to 10 uM incubated for 2 hrs prior to IL-4 challenge measured after 1 hr by Western blotting analysis. Background: In western blotting, separated proteins are transferred to a membrane and probed.

Data set [2] deals with T1, Signal transducer and activator of transcription 6 (Homo sapiens). Kind of data set: Inhibition of IL4-stimulated SH2 domain of STAT6 phosphorylation at Tyr641 in human BEAS2B cells at 1 to 10 uM incubated for 2 to 48 hrs prior to IL-4 challenge measured after 1 hr by Western blotting analysis.
Data set [3] is described as follows: Cytotoxicity against human BEAS2B cells up to 10 uM after 72 hrs by MTS assay. To be noted: beas-2b. For orientation: Tetrazolium dyes change colour on reduction, which living cells bring about.
Data set [4] addresses T1, Signal transducer and activator of transcription 6 (Homo sapiens). As to the kind of experiment: Inhibition of IL13-stimulated SH2 domain of STAT6 phosphorylation at Tyr641 in human BEAS2B cells at 1 to 10 uM incubated for 2 hrs prior to IL-13 challenge measured after 1 hr by Western blotting analysis.

For the molecule `CC(C)(C)C(=O)OCOP(=O)(OCOC(=O)C(C)(C)C)C(F)(F)c1ccc(/C=C/C(=O)N[C@H](C(=O)N2CCC[C@H]2C(=O)N(c2ccccc2)c2ccc(I)cc2)C(C)(C)C)cc1`, the inhibition entry in data set [1], in data set [2] and in data set [4] was “Active” each time. In data set [3], the Activity result is “Non-toxic”.
